# Read-outs that look alike come from different tables or passages of the source.
# Columns and labels:
# menopausal hot flashes = details: cited from earlier work
# [1] = Megestrol Acetate in plasma samples by GC/MS; format: in vivo; details: human; for concentration at 1 h: 1 h post dosing; for concentration at 2 h: 2 h post dosing; for concentration at 4 h: 4 h post dosing; for concentration at 8 h: 8 h post dosing; for concentration at 12 h: 12 h post dosing; for concentration at 24 h: 24 h post dosing; for concentration at 36 h: 36 h post dosing; for concentration at 48 h: 48 h post dosing; for concentration at 0 h: time 0 h (predose)
# Description: A total of 90 plasma samples were analyzed for their content of Megestrol Acetate by GC/MS.
# In this study megestrol acetate was utilized and medroxyprogesterone acetate was utilized as an internal standard.
# For each sample, 1 mL of human plasma was aliquoted and spiked with 25 μL of the internal standard working solution. In the following, the samples were alkalized and extracted with a toluene/diisopropylether mixture. The resulting extracts were stored in a refrigerator until measurement. Just prior to measurement, the sample extracts were evaporated to dryness and reconstituted in toluene. 2 μL of the resulting solution were injected into the GC/MS system. The gas chromatograph was run in the temperature-programmed mode to achieve improved separation. Positive ions chemical ionization (PICI) was used for mass selective detection. Selected mass/charge ratios were m/z 385.2 for megestrol acetate and m/z 387.2 for the internal standard.
# The time measured represents the number of hours passed post dosing. Subjects 2, 4, 6, 8 and 10 all received a 6 mg dose of megestrol acetate. Subjects 1, 3, 5, 7 and 9 all received a 1.5 mg dose of megestrol acetate. […] A third measurement was not possible due to insufficient sample. During the study, 3 series of plasma calibration curves were measured (prevalidation run not considered).
structure (smiles),measurement,setting,value
"CC(=O)O[C@]1(C(C)=O)CC[C@H]2[C@@H]3C=C(C)C4=CC(=O)CC[C@]4(C)[C@H]3CC[C@@]21C [megestrol acetate, Pregna-4,6-diene-3,20-dione, 17-(acetyloxy)-6-methyl-]",decrease of menopausal hot flashes,menopausal hot flashes; daily dose 20 mg,80%
same,decrease of menopausal hot flashes,menopausal hot flashes; daily dose 40 mg,89%
same,decrease of menopausal hot flashes,menopausal hot flashes; daily dose 80 mg,98%
same,concentration at 1 h,"[1]; 1.5 mg, Sub 1, 1.5 mg dose",7.82 ng/mL
same,concentration at 2 h,"[1]; 1.5 mg, Sub 1, 1.5 mg dose",2.74 ng/mL
same,concentration at 4 h,"[1]; 1.5 mg, Sub 1, 1.5 mg dose",1.01 ng/mL
same,concentration at 8 h,"[1]; 1.5 mg, Sub 1, 1.5 mg dose",0.607 ng/mL
same,concentration at 12 h,"[1]; 1.5 mg, Sub 1, 1.5 mg dose",0.413 ng/mL
same,concentration at 24 h,"[1]; 1.5 mg, Sub 1, 1.5 mg dose",0.399 ng/mL
same,concentration at 36 h,"[1]; 1.5 mg, Sub 1, 1.5 mg dose",0.504 ng/mL
same,concentration at 48 h,"[1]; 1.5 mg, Sub 1, 1.5 mg dose",0.463 ng/mL
same,concentration at 0 h,"[1]; 1.5 mg, Sub 1, 1.5 mg dose",0.492 ng/mL
same,concentration at 1 h,"[1]; 1.5 mg, Sub 3, 1.5 mg dose",9.32 ng/mL
same,concentration at 2 h,"[1]; 1.5 mg, Sub 3, 1.5 mg dose",5.24 ng/mL
same,concentration at 4 h,"[1]; 1.5 mg, Sub 3, 1.5 mg dose",3.04 ng/mL
same,concentration at 8 h,"[1]; 1.5 mg, Sub 3, 1.5 mg dose",2.66 ng/mL
same,concentration at 12 h,"[1]; 1.5 mg, Sub 3, 1.5 mg dose",1.98 ng/mL
same,concentration at 24 h,"[1]; 1.5 mg, Sub 3, 1.5 mg dose",1.8 ng/mL
same,concentration at 36 h,"[1]; 1.5 mg, Sub 3, 1.5 mg dose",1.99 ng/mL
same,concentration at 48 h,"[1]; 1.5 mg, Sub 3, 1.5 mg dose",1.48 ng/mL
same,concentration at 0 h,"[1]; 1.5 mg, Sub 3, 1.5 mg dose",1.98 ng/mL
same,concentration at 1 h,"[1]; 1.5 mg, Sub 5, 1.5 mg dose",4.98 ng/mL
same,concentration at 2 h,"[1]; 1.5 mg, Sub 5, 1.5 mg dose",2.75 ng/mL
same,concentration at 4 h,"[1]; 1.5 mg, Sub 5, 1.5 mg dose",0.959 ng/mL
same,concentration at 8 h,"[1]; 1.5 mg, Sub 5, 1.5 mg dose",0.521 ng/mL
same,concentration at 12 h,"[1]; 1.5 mg, Sub 5, 1.5 mg dose",0.353 ng/mL
same,concentration at 24 h,"[1]; 1.5 mg, Sub 5, 1.5 mg dose",0.344 ng/mL
same,concentration at 36 h,"[1]; 1.5 mg, Sub 5, 1.5 mg dose",0.409 ng/mL
same,concentration at 48 h,"[1]; 1.5 mg, Sub 5, 1.5 mg dose",0.267 ng/mL
same,concentration at 0 h,"[1]; 1.5 mg, Sub 5, 1.5 mg dose",0.426 ng/mL
same,concentration at 1 h,"[1]; 1.5 mg, Sub 7, 1.5 mg dose",7.82 ng/mL
same,concentration at 2 h,"[1]; 1.5 mg, Sub 7, 1.5 mg dose",4.83 ng/mL
same,concentration at 4 h,"[1]; 1.5 mg, Sub 7, 1.5 mg dose",1.99 ng/mL
same,concentration at 8 h,"[1]; 1.5 mg, Sub 7, 1.5 mg dose",1.47 ng/mL
same,concentration at 12 h,"[1]; 1.5 mg, Sub 7, 1.5 mg dose",1.59 ng/mL
same,concentration at 24 h,"[1]; 1.5 mg, Sub 7, 1.5 mg dose",0.771 ng/mL
same,concentration at 36 h,"[1]; 1.5 mg, Sub 7, 1.5 mg dose",0.592 ng/mL
same,concentration at 48 h,"[1]; 1.5 mg, Sub 7, 1.5 mg dose",0.564 ng/mL
same,concentration at 0 h,"[1]; 1.5 mg, Sub 7, 1.5 mg dose",0.851 ng/mL
same,concentration at 1 h,"[1]; 1.5 mg, Sub 9, 1.5 mg dose",14.4 ng/mL
same,concentration at 2 h,"[1]; 1.5 mg, Sub 9, 1.5 mg dose",9.21 ng/mL
same,concentration at 4 h,"[1]; 1.5 mg, Sub 9, 1.5 mg dose",4.02 ng/mL
same,concentration at 8 h,"[1]; 1.5 mg, Sub 9, 1.5 mg dose",1.64 ng/mL
same,concentration at 12 h,"[1]; 1.5 mg, Sub 9, 1.5 mg dose",1.59 ng/mL
same,concentration at 24 h,"[1]; 1.5 mg, Sub 9, 1.5 mg dose",1.09 ng/mL
same,concentration at 36 h,"[1]; 1.5 mg, Sub 9, 1.5 mg dose",1.3 ng/mL
same,concentration at 48 h,"[1]; 1.5 mg, Sub 9, 1.5 mg dose",1.31 ng/mL
same,concentration at 0 h,"[1]; 1.5 mg, Sub 9, 1.5 mg dose",1.4 ng/mL
same,concentration at 1 h,"[1]; 6 mg, Sub 2, 6 mg dose",32.9 ng/mL
same,concentration at 2 h,"[1]; 6 mg, Sub 2, 6 mg dose",28.1 ng/mL
same,concentration at 4 h,"[1]; 6 mg, Sub 2, 6 mg dose",9.89 ng/mL
same,concentration at 8 h,"[1]; 6 mg, Sub 2, 6 mg dose",6.98 ng/mL
same,concentration at 12 h,"[1]; 6 mg, Sub 2, 6 mg dose",5.84 ng/mL
same,concentration at 24 h,"[1]; 6 mg, Sub 2, 6 mg dose",4.4 ng/mL
same,concentration at 36 h,"[1]; 6 mg, Sub 2, 6 mg dose",5.04 ng/mL
same,concentration at 48 h,"[1]; 6 mg, Sub 2, 6 mg dose",3.58 ng/mL
same,concentration at 0 h,"[1]; 6 mg, Sub 2, 6 mg dose",6.48 ng/mL
same,concentration at 1 h,"[1]; 6 mg, Sub 4, 6 mg dose",37.4 ng/mL
same,concentration at 2 h,"[1]; 6 mg, Sub 4, 6 mg dose",18.7 ng/mL
same,concentration at 4 h,"[1]; 6 mg, Sub 4, 6 mg dose",7.22 ng/mL
same,concentration at 8 h,"[1]; 6 mg, Sub 4, 6 mg dose",4.7 ng/mL
same,concentration at 12 h,"[1]; 6 mg, Sub 4, 6 mg dose",3.05 ng/mL
same,concentration at 24 h,"[1]; 6 mg, Sub 4, 6 mg dose",2.17 ng/mL
same,concentration at 36 h,"[1]; 6 mg, Sub 4, 6 mg dose",3.58 ng/mL
same,concentration at 48 h,"[1]; 6 mg, Sub 4, 6 mg dose",2.9 ng/mL
same,concentration at 0 h,"[1]; 6 mg, Sub 4, 6 mg dose",4.44 ng/mL
same,concentration at 1 h,"[1]; 6 mg, Sub 6, 6 mg dose",44 ng/mL
same,concentration at 2 h,"[1]; 6 mg, Sub 6, 6 mg dose",32.1 ng/mL
same,concentration at 4 h,"[1]; 6 mg, Sub 6, 6 mg dose",12.6 ng/mL
same,concentration at 8 h,"[1]; 6 mg, Sub 6, 6 mg dose",7.61 ng/mL
same,concentration at 12 h,"[1]; 6 mg, Sub 6, 6 mg dose",5.8 ng/mL
same,concentration at 24 h,"[1]; 6 mg, Sub 6, 6 mg dose",4.04 ng/mL
same,concentration at 36 h,"[1]; 6 mg, Sub 6, 6 mg dose",6.58 ng/mL
same,concentration at 48 h,"[1]; 6 mg, Sub 6, 6 mg dose",5.65 ng/mL
same,concentration at 0 h,"[1]; 6 mg, Sub 6, 6 mg dose",8.58 ng/mL
same,concentration at 1 h,"[1]; 6 mg, Sub 8, 6 mg dose",19.5 ng/mL
same,concentration at 2 h,"[1]; 6 mg, Sub 8, 6 mg dose",10.6 ng/mL
same,concentration at 4 h,"[1]; 6 mg, Sub 8, 6 mg dose",3.68 ng/mL
same,concentration at 8 h,"[1]; 6 mg, Sub 8, 6 mg dose",1.41 ng/mL
same,concentration at 12 h,"[1]; 6 mg, Sub 8, 6 mg dose",0.908 ng/mL
same,concentration at 24 h,"[1]; 6 mg, Sub 8, 6 mg dose",0.459 ng/mL
same,concentration at 36 h,"[1]; 6 mg, Sub 8, 6 mg dose",1.34 ng/mL
same,concentration at 48 h,"[1]; 6 mg, Sub 8, 6 mg dose",0.796 ng/mL
same,concentration at 0 h,"[1]; 6 mg, Sub 8, 6 mg dose",< 0.1 ng/mL
same,concentration at 1 h,"[1]; 6 mg, Sub 10, 6 mg dose",23.5 ng/mL
same,concentration at 2 h,"[1]; 6 mg, Sub 10, 6 mg dose",17.2 ng/mL
same,concentration at 4 h,"[1]; 6 mg, Sub 10, 6 mg dose",6.93 ng/mL
same,concentration at 8 h,"[1]; 6 mg, Sub 10, 6 mg dose",4.95 ng/mL
same,concentration at 12 h,"[1]; 6 mg, Sub 10, 6 mg dose",2.85 ng/mL
same,concentration at 24 h,"[1]; 6 mg, Sub 10, 6 mg dose",1.77 ng/mL
same,concentration at 36 h,"[1]; 6 mg, Sub 10, 6 mg dose",2.6 ng/mL
same,concentration at 48 h,"[1]; 6 mg, Sub 10, 6 mg dose",1.63 ng/mL
